This note sets out measurements from patent US12070594B2, “Biomedical electrode with anti-microbial properties” (Compass Health Brands Corp., priority 2018, dated 2024).

What all share (type): cell-based
The subject of assay [1] is S. aureus ATCC 25923. Nature of the assay: Antibiotic susceptibility, reference microorganism.
The test system of assay [2] is S. aureus ATCC 33592. Put plainly: Antibiotic Susceptibility of the Test Microorganisms.
In assay [3] the test system is A. baumannii ATCC BAA-1605. Described as above.
For assay [4], the system named is E. coli ATCC 25922. Put plainly: Antibiotic susceptibility, reference microorganism.
The test system of assay [5] is P. aeruginosa ATCC 27853. Put plainly: Antibiotic susceptibility, reference microorganism.
The subject of assay [6] is E. cloacae ATCC BAA-2468. Nature of the assay: Antibiotic Susceptibility of the Test Microorganisms.
The test system of assay [7] is E. faecalis ATCC 51575. The description is as above.
[8] abbreviates: susceptibility ≥21 mm, resistance ≤17 mm (CLSI M100).

On to `Cc1onc(-c2ccccc2)c1C(=O)N[C@@H]1C(=O)N2[C@@H]1SC(C)(C)[C@@H]2C(=O)O` [Oxocillin], for which the “Reference Microorganism Diameter” value in assay [1] stood at 51.9 mm. The “Test Microorganism Demonstrates Resistance?” value in assay [2] is on record as “Yes”. For the same compound, the “Test Microorganism Diameter” value in assay [2] (susceptibility ≥13 mm, resistance ≤10 mm (CLSI M100)) is recorded as 9.2 mm.
Take `CCN1CCN(C(=O)N[C@@H](C(=O)N[C@@H]2C(=O)N3[C@@H]2SC(C)(C)[C@@H]3C(=O)O)c2ccccc2)C(=O)C1=O` [Piperacillin]: the “Test Microorganism Demonstrates Resistance?” value in assay [3] and in assay [6] was “Yes” each time. Further, the “Test Microorganism Diameter” value in assay [3] (setting [8]) and in assay [6] (setting [8]) was 6.5 mm throughout. Moreover, the “Reference Microorganism Diameter” value was 25.3 mm in assay [4] and 26.2 mm in assay [5].
In the case of `CN[C@H](CC(C)C)C(=O)N[C@H]1C(=O)N[C@@H](CC(N)=O)C(=O)N[C@H]2C(=O)N[C@H]3C(=O)N[C@H](C(=O)N[C@H](C(=O)O)c4cc(O)cc(O)c4-c4cc3ccc4O)[C@H](O)c3ccc(c(Cl)c3)Oc3cc2cc(c3O[C@@H]2O[C@H](CO)[C@@H](O)[C@H](O)[C@H]2O[C@H]2C[C@](C)(N)[C@H](O)[C@H](C)O2)Oc2ccc(cc2Cl)[C@H]1O` [Vancomycin], the “Reference Microorganism Diameter” value in assay [1] was 21.2 mm. Moreover, the “Test Microorganism Demonstrates Resistance?” value in assay [7] is listed as “Yes”. Also, the “Test Microorganism Diameter” value in assay [7] (susceptibility ≥17 mm, resistance ≤14 mm (CLSI M100)) is given as 11.3 mm.
